{"source": "patent US20210069145A1", "about": "“COMPOSITIONS AND METHODS FOR REDUCING A FATTY ACID DESATURATION INDEX IN A SUBJECT IN NEED THEREOF” (Amarin Pharmaceuticals Ireland Limited, priority 2013, published 2021)", "key": {"[1]": {"tested_on": "fatty acid desaturation index (FADI), plasma", "assay": "Fatty acid desaturation index (FADI) ratios in plasma, 12-week placebo-controlled study", "format": "in vivo, human", "settings": "4 g/day, 12 weeks, placebo-adjusted, from baseline", "experimental": "(§1) A multi-center, placebo-controlled, randomized, double-blind, 12-week study was performed to evaluate the efficacy and safety of >96% E-EPA in patients with fasting triglyceride levels ≥200 mg/dl and <500 mg/dl despite statin therapy (the mean of two qualifying entry values needed to be ≥185 mg/dl and at least one of the values needed to be ≥200 mg/dl). The primary objective of the study was to determine the efficacy of >96% E-EPA 2 g daily and 4 g daily, compared to placebo, in lowering fasting TG levels in patients with high risk for cardiovascular disease and with fasting TG levels ≥200 mg/dl and <500 mg/dl, despite treatment to LDL-C goal on statin therapy.\nThe population for this study was men and women >18 years of age with a body mass index ≤45 kg/m^2 with fasting TG levels greater than or equal to 200 mg/dl and less than 500 mg/dl and on a stable does of statin therapy (with or without ezetimibe). The statin was atorvostatin, rosuvastatin or simvastatin. The dose of statin must have been stable for ≥4 weeks prior to the LDL-C/TG baseline qualifying measurement for randomization. The statin dose was optimized such that the patients are at their LDL-C goal at the LDL-C/TG baseline qualifying measurements. The same statin at the same dose was continued until the study ended. […]\n(§2) The primary efficacy variable for the double-blind treatment period was percent change in TG from baseline to Week 12 endpoint. The secondary efficacy variables for the double-blind treatment period included the following: • Percent changes in total cholesterol (TC), high-density lipoprotein cholesterol (HDL-C), LDL-C, calculated non-HDL-C, and very low-density lipoprotein cholesterol (VLDL-C) from baseline to Week 12 endpoint; • Percent change in very low-density lipoprotein TG from baseline to Week 12; • Percent changes in apolipoprotein A-I (apo A-I), apolipoprotein B (apo B), and apo A-I/apo B ratio from baseline to Week 12; • Percent changes in lipoprotein(a) from baseline to Week 12; • Percent changes in LDL particle number and size, measured by nuclear magnetic resonance, from baseline to Week 12; • Percent change in remnant-like particle cholesterol from baseline to Week 12; • Percent change in oxidized LDL from baseline to Week 12; • Changes in FPG and HbA1c from baseline to Week 12; • Change in insulin resistance, as assessed by the homeostasis model index insulin resistance, from baseline to Week 12; • Percent change in lipoprotein associated phospholipase A2 (Lp-PLA2) from baseline to Week 12; • Change in intracellular adhesion molecule-1 from baseline to Week 12; • Change in interleukin-2 from baseline to Week 12; • Change in plasminogen activator inhibitor-1 from baseline to Week 12. […]"}, "[2]": {"tested_on": "Lipoprotein Particle Sizes", "assay": "Lipoprotein particle sizes, 12-week double-blind placebo-controlled study of >96% E-EPA in statin-treated patients", "format": "in vivo, human", "settings": "12 weeks; for LDL particle size, % Δ / HDL particle size, % Δ / VLDL particle size, % Δ: median change from baseline; for LDL particle size, End / HDL particle size, End / VLDL particle size, End: median", "experimental": "as §1\nThe population for this study was men and women >18 years of age with a body mass index ≤45 kg/m^2 with fasting TG levels greater than or equal to 200 mg/dl and less than 500 mg/dl and on a stable does of statin therapy (with or without ezetimibe). The statin was atorvostatin, rosuvastatin or simvastatin. The dose of statin must have been stable for ≥4 weeks prior to the LDL-C/TG baseline qualifying measurement for randomization. The statin dose was optimized such that the patients are at their LDL-C goal at the LDL-C/TG baseline qualifying measurements. The same statin at the same dose was continued until the study ended.\nApproximately 702 patients were randomized at approximately 80 centers in the U.S. The study was a 18- to 20-week, Phase 3, multi-center study consisting of 2 study periods: (1) A 6- to 8-week screening period that included a diet and lifestyle stabilization, a non-statin lipid-altering treatment washout, and an LDL-C and TG qualifying period and (2) A 12-week, double-blind, randomized, placebo-controlled treatment period.\nAfter confirmation of qualifying fasting LDL-C and TG values, eligible patients entered a 12-week, randomized, double-blind treatment period. At Visit 4 (Week 0), patients were randomly assigned to 1 of the following treatment groups: • >96% E-EPA 2 g daily, • >96% E-EPA 4 g daily, or • Placebo.\nDuring the double-blind treatment period, patients were to take 2 capsules (>96% E-EPA or matching placebo) in the morning and 2 capsules in the evening for a total of 4 capsules per day. • Patients in the >96% E-EPA 2 g/day treatment group received 1>96% E-EPA 1 g capsule and 1 matching placebo capsule in the morning and in the evening. • Patients in the >96% E-EPA 4 g/day treatment group received 2>96% E-EPA 1 g capsules in the morning and evening.\nas §2"}, "[3]": {"settings": "listed as Ethyl Eicosapentaenoate"}, "[4]": {"settings": "4 g/day, Hodges-Lehmann median, listed as E-EPA"}}, "data": [{"smiles": "CC/C=C\\C/C=C\\C/C=C\\C/C=C\\C/C=C\\CCCC(=O)OCC", "note": "[ethyl eicosapentaenoate, all-cis eicosa-5,8,11,14,17-pentaenoic acid ethyl ester]", "values": [{"measurement": "FADI-16 (Palmitoleic acid/Palmitic acid, C16:1/C16:0) % Change, Plasma", "setting": "[1]", "value": "significantly reduced"}, {"measurement": "FADI-18 (Oleic acid/Stearic Acid, C18:1/C18:0) % Change, Plasma", "setting": "[1]", "value": "significantly reduced"}, {"measurement": "FADI-16 (Palmitoleic acid/Palmitic acid, C16:1/C16:0) % Change, Plasma", "setting": "[1]; [3]", "value": "−6.8", "unit": "%"}, {"measurement": "FADI-18 (Oleic acid/Stearic Acid, C18:1/C18:0) % Change, Plasma", "setting": "[1]; [3]", "value": "−9.8", "unit": "%"}, {"measurement": "HDL particle size, Placebo-Adjusted Median Change from Baseline 2 g/d, %", "setting": "[2]; 2 g/day, Hodges-Lehmann median", "value": 0.0, "unit": "%"}, {"measurement": "LDL particle size, Placebo-Adjusted Median Change from Baseline 2 g/d, %", "setting": "[2]; 2 g/day, Hodges-Lehmann median", "value": "+0.5%"}, {"measurement": "VLDL particle size, Placebo-Adjusted Median Change from Baseline 2 g/d, %", "setting": "[2]; 2 g/day, Hodges-Lehmann median", "value": "−4.8", "unit": "%"}, {"measurement": "LDL particle size, % Δ", "setting": "[2]; 2 g/day, n = 221", "value": "+0.5%"}, {"measurement": "HDL particle size, % Δ", "setting": "[2]; 2 g/day, n = 222", "value": 0.0, "unit": "%"}, {"measurement": "VLDL particle size, % Δ", "setting": "[2]; 2 g/day, n = 222", "value": "−5.0", "unit": "%"}, {"measurement": "LDL particle size, End", "setting": "[2]; 2 g/day, n = 221", "value": 20.0, "unit": "nm"}, {"measurement": "HDL particle size, End", "setting": "[2]; 2 g/day, n = 222", "value": 8.6, "unit": "nm"}, {"measurement": "VLDL particle size, End", "setting": "[2]; 2 g/day, n = 222", "value": 53.2, "unit": "nm"}, {"measurement": "HDL particle size, Placebo-Adjusted Median Change from Baseline 4 g/d, %", "setting": "[2]; 4 g/day, Hodges-Lehmann median", "value": "significantly reduced"}, {"measurement": "LDL particle size, Placebo-Adjusted Median Change from Baseline 4 g/d, %", "setting": "[2]; 4 g/day, Hodges-Lehmann median", "value": "modest but significant increase"}, {"measurement": "VLDL particle size, Placebo-Adjusted Median Change from Baseline 4 g/d, %", "setting": "[2]; 4 g/day, Hodges-Lehmann median", "value": "significantly reduced"}, {"measurement": "HDL particle size, Placebo-Adjusted Median Change from Baseline 4 g/d, %", "setting": "[2]; [4]", "value": "−1.2", "unit": "%"}, {"measurement": "LDL particle size, Placebo-Adjusted Median Change from Baseline 4 g/d, %", "setting": "[2]; [4]", "value": "+0.5%"}, {"measurement": "VLDL particle size, Placebo-Adjusted Median Change from Baseline 4 g/d, %", "setting": "[2]; [4]", "value": "−7.7", "unit": "%"}, {"measurement": "LDL particle size, % Δ", "setting": "[2]; 4 g/day, n = 215", "value": "+0.5%"}, {"measurement": "HDL particle size, % Δ", "setting": "[2]; 4 g/day, n = 216", "value": "−1.1", "unit": "%"}, {"measurement": "VLDL particle size, % Δ", "setting": "[2]; 4 g/day, n = 216", "value": "−8.1", "unit": "%"}, {"measurement": "LDL particle size, End", "setting": "[2]; 4 g/day, n = 215", "value": 20.0, "unit": "nm"}, {"measurement": "HDL particle size, End", "setting": "[2]; 4 g/day, n = 216", "value": 8.6, "unit": "nm"}, {"measurement": "VLDL particle size, End", "setting": "[2]; 4 g/day, n = 216", "value": 51.2, "unit": "nm"}]}]}
